US20080097110A1, “Salt forms of substituted benzothienyl compounds” (priority 2006, published 2008)

Key:
[1] = Equilibrium solubility testing of salt forms; format: physicochemical
Method: Solubility testing was performed on several salt forms and results for free compound (mg) in media (ml) (represented as mg/ml) at equilibrium solubility are shown in Table 4. SIF refers to simulated intestinal fluid.

[2] = Dynamic vapor sorption (DVS) testing of salt forms; format: physicochemical
Method: Dynamic vapor sorption (DVS) testing was performed on several salt forms and sorption and desorption results under various relative humidity (RH) conditions are shown in Table 3.

| SMILES | Sorption ([2]; 0-90% RH) | Desorption ([2]; 90-0% RH) | Sorption ([2]; 80-90% RH) | Sorption ([2]; 0-60% RH) | Sorption ([2]; 60-70% RH) | Sorption ([2]; 70-80% RH) | other results |
| --- | --- | --- | --- | --- | --- | --- | --- |
| CO.CP(=O)(O)C(C(=O)N/C=C/c1ccc(F)c(F)c1)c1csc2ccc(Cl)cc12 (centres unmarked) [Form A] | 0-90% RH: 2.94% |  |  |  |  |  | Equilibrium solubility, free compound (mg) in media (ml) ([1]; media 0.1N HCL, pH 1.50 (A), 1.40 (Compound 1b), 1.51 (B1)): 5.7 mg/mL; Equilibrium solubility, free compound (mg) in media (ml) ([1]; media 0.1N NaOH, pH 4.47 (A), 11.78 (Compound 1b), 8.88 (B1)): 46.5 mg/mL; Equilibrium solubility, free compound (mg) in media (ml) ([1]; media SIF (simulated intestinal fluid), pH 4.78 (A), 7.85 (Compound 1b), 7.65 (B1)): 18.7 mg/mL; Sorption ([2]; 0-30% RH): 0-30% RH: 0.34%; Desorption ([2]; 30-0% RH): 30-0% RH: 7.14%; Sorption ([2]; 30-90% RH): 30-90% RH: 2.60%; Desorption ([2]; 90-30% RH): 90-30% RH: 1.48% |
| CP(=O)(O)C(C(=O)N/C=C/c1ccc(F)c(F)c1)c1csc2ccc(Cl)cc12.NC(CO)(CO)CO (centres unmarked) [Form B1] |  |  |  |  |  |  | Equilibrium solubility, free compound (mg) in media (ml) ([1]; pH 1.5): 1.7 mg/mL; Equilibrium solubility, free compound (mg) in media (ml) ([1]; pH 4.47): 42.2 mg/mL; Equilibrium solubility, free compound (mg) in media (ml) ([1]; pH 4.78): 14.6 mg/mL |
| CP(=O)(O)C(C(=O)N/C=C/c1ccc(F)c(F)c1)c1csc2ccc(Cl)cc12.NC(CO)(CO)CO (centres unmarked) [Form B2] | 0-90% RH: 2.085% | 90-0% RH: 2.231% |  |  |  |  |  |
| CNC[C@H](O)[C@@H](O)[C@H](O)[C@H](O)CO.CP(=O)(O)C(C(=O)N/C=C/c1ccc(F)c(F)c1)c1csc2ccc(Cl)cc12 (centres unmarked) [Form C2] | 0-90% RH: 5.52% | 90-0% RH: 6.66% | 80-90% RH: 1.84% |  |  |  | Solubility (remained in solution; equilibrium solubility could not be determined) ([1]; media not stated): > 232 mg/mL; Sorption ([2]; 0-80% RH): 0-80% RH: 3.68%; Desorption ([2]; 10-0% RH): 10-0% RH: 2.75%; Desorption ([2]; 90-10% RH): 90-10% RH: 3.91% |
| CP(=O)([O-])C(C(=O)N/C=C/c1ccc(F)c(F)c1)c1csc2ccc(Cl)cc12.[K+] (centres unmarked) [Form F1] | 0-90% RH: 11.35% | 90-0% RH: 16.81% | 80-90% RH: 8.59% | 0-60% RH: 0.00% | 60-70% RH: 0.30% | 70-80% RH: 2.46% |  |
| CP(=O)([O-])C(C(=O)N/C=C/c1ccc(F)c(F)c1)c1csc2ccc(Cl)cc12.[K+] (centres unmarked) [Form F2] | 0-90% RH: 11.35% | 90-0% RH: 16.81% | 80-90% RH: 8.59% | 0-60% RH: 0.00% | 60-70% RH: 0.30% | 70-80% RH: 2.46% |  |
| CP(=O)([O-])C(C(=O)N/C=C/c1ccc(F)c(F)c1)c1csc2ccc(Cl)cc12.[K+] (centres unmarked) [Form F3] | 0-90% RH: 11.35% | 90-0% RH: 16.81% | 80-90% RH: 8.59% | 0-60% RH: 0.00% | 60-70% RH: 0.30% | 70-80% RH: 2.46% |  |
